Target: T1, human PDE9A2 (Homo sapiens, UniProt O76083)
T1 construct: made in house; host or cells: Sf9 insect cells (infected); crude lysate used as enzyme source
Test: PDE9A2 enzymatic activity assay (scintillation proximity assay, SPA)
Assay type: biochemical
Conditions: for inhibition at 10 µM: read-out: % inhibition of PDE9A2 (at 10 micromolar concentration), 10 micromolar concentration; for inhibition at 10 µM / % inhibition of PDE9A2 (at 10 micromolar concentration): values above 100% adjusted to 100%; for IC50: reported only as range 1-100 or 101-1200 nanomolar, specific value lies within range, read-out: IC50 within range [nanomolar (nM)]

T1 sequence (O76083 1-533 isoform O76083-2): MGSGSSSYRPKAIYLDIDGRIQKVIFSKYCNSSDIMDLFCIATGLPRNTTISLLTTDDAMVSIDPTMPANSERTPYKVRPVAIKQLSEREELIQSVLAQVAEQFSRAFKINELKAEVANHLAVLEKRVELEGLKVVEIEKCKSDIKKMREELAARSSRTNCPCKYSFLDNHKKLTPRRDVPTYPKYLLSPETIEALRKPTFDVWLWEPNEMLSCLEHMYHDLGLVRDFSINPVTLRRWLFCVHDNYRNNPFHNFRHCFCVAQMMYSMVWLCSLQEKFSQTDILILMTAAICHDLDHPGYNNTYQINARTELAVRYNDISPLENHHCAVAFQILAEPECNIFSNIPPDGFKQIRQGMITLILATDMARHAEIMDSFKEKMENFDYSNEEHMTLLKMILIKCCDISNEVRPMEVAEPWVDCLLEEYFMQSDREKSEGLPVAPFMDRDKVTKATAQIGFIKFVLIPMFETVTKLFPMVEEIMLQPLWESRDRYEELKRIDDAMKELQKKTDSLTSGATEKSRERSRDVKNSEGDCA

Question: How did the inhibition at 10 µM turn out when `CC(C)Cc1nc2c(cnn2C2CCOCC2C)c(=O)[nH]1` (racemic) [Example 132-1] was run?
Answer: The inhibition at 10 µM was 97%.

Question: And the IC50?
Answer: The IC50 was 1 to 100 nM.

Question: `O=c1[nH]c(CC2CCCCC2)nc2c1cnn2C1CCCOC1` (racemic) [Example 103] was tested. Which inhibition at 10 µM did it give?
Answer: The inhibition at 10 µM was 99%.

Question: What about the IC50 of the same compound?
Answer: The IC50 was 1 to 100 nM.

Question: Which results are given for `O=c1[nH]c(CC2CCOCC2)nc2c1cnn2C1CCOCC1` [Example 41]?
Answer: inhibition at 10 µM: 92%; IC50: 101 to 1200 nM

Question: For `COc1cccnc1Cc1nc2c(cnn2C2CCOCC2)c(=O)[nH]1` [Example 67], which inhibition at 10 µM is on record?
Answer: Its inhibition at 10 µM is 95%.

Question: And the IC50?
Answer: The IC50 was 101 to 1200 nM.

Question: Which results are given for `O=c1[nH]c(Cc2ccccc2)nc2c1cnn2C1CCCNC1` (racemic) [Example 197]?
Answer: inhibition at 10 µM: 91%; IC50: 101 to 1200 nM

Question: Which results are given for `CC(C)Cc1nc2c(cnn2C2CCOCC2)c(=O)[nH]1` [Example 143]?
Answer: inhibition at 10 µM: 100%; IC50: 1 to 100 nM

Question: For `CC(C)Cc1nc2c(cnn2C2CCCOC2)c(=O)[nH]1` (racemic) [Example 92], which inhibition at 10 µM is on record?
Answer: The inhibition at 10 µM was 98%.

Question: And the IC50?
Answer: The IC50 was 1 to 100 nM.

Question: How did the inhibition at 10 µM turn out when `O=c1[nH]c(CC2CCCC2)nc2c1cnn2C1CCCCO1` (racemic) [Example 147] was run?
Answer: Its inhibition at 10 µM is 99%.

Question: What about the IC50 of the same compound?
Answer: The IC50 was 1 to 100 nM.

Question: How did the inhibition at 10 µM turn out when `O=c1[nH]c(Cc2cccnc2)nc2c1cnn2C1CCOCC1` [Example 123] was run?
Answer: Its inhibition at 10 µM is 91%.

Question: What about the IC50 of the same compound?
Answer: Its IC50 is 101 to 1200 nM.

Question: `CCOc1ccccc1Cc1nc2c(cnn2C2CCOC(C)(C)C2)c(=O)[nH]1` (racemic) [Example 105] was tested. Which inhibition at 10 µM did it give?
Answer: The inhibition at 10 µM was 84%.

Question: What about the IC50 of the same compound?
Answer: The IC50 was 101 to 1200 nM.

Question: For `CCOc1ccccc1Cc1nc2c(cnn2C2CCCN(C(=O)OC(C)(C)C)C2)c(=O)[nH]1` (racemic) [Example 30], which inhibition at 10 µM is on record?
Answer: The inhibition at 10 µM was 100%.

Question: What about the IC50 of the same compound?
Answer: The IC50 was 1 to 100 nM.

Question: `CN1CCC(n2ncc3c(=O)[nH]c(CC4CCCC4)nc32)C1` (racemic) [Example 207] was tested. Which inhibition at 10 µM did it give?
Answer: Its inhibition at 10 µM is 100%.

Question: And the IC50?
Answer: Its IC50 is 1 to 100 nM.

Question: Which results are given for `O=c1[nH]c(Cc2cccnc2)nc2c1cnn2C1CCOC1` (racemic) [Example 78]?
Answer: inhibition at 10 µM: 99%; IC50: 101 to 1200 nM

Question: With `O=c1[nH]c(CC2CCCC2)nc2c1cnn2C1CCNC1` (racemic) [Example 194] as the compound, how does the inhibition at 10 µM read?
Answer: The inhibition at 10 µM was 97%.

Question: And the IC50?
Answer: The IC50 was 101 to 1200 nM.

Question: What does the source list for `O=c1[nH]c(Cc2ccccn2)nc2c1cnn2C1CCOC1` (racemic) [Example 124]?
Answer: inhibition at 10 µM: 95%; IC50: 101 to 1200 nM

Question: How did the inhibition at 10 µM turn out when `O=c1[nH]c(Cc2cc(C(F)(F)F)ccn2)nc2c1cnn2C1CCOCC1` [Example 65] was run?
Answer: Its inhibition at 10 µM is 97%.

Question: What about the IC50 of the same compound?
Answer: Its IC50 is 1 to 100 nM.

Question: `CCC(C)Cc1nc2c(cnn2C2CCCOC2)c(=O)[nH]1` (mixture of isomers) [Example 95] was tested. Which inhibition at 10 µM did it give?
Answer: Its inhibition at 10 µM is 98%.

Question: And the IC50?
Answer: The IC50 was 1 to 100 nM.

Question: Which inhibition at 10 µM does the source give for `CC(c1ccccc1)c1nc2c(cnn2C2CCOCC2)c(=O)[nH]1` (racemic) [Example 14] here?
Answer: The inhibition at 10 µM was 96%.

Question: What about the IC50 of the same compound?
Answer: Its IC50 is 101 to 1200 nM.

Question: With `O=c1[nH]c(Cc2ccc(F)c(Br)c2)nc2c1cnn2C1CCOCC1` [Example 136] as the compound, how does the inhibition at 10 µM read?
Answer: Its inhibition at 10 µM is 100%.

Question: And the IC50?
Answer: Its IC50 is 1 to 100 nM.

Question: With `CCC(Cc1nc2c(cnn2C2CCCN(C(=O)OC(C)(C)C)C2)c(=O)[nH]1)C(F)(F)F` (racemic) [Example 21] as the compound, how does the inhibition at 10 µM read?
Answer: The inhibition at 10 µM was 97%.

Question: And the IC50?
Answer: Its IC50 is 101 to 1200 nM.

Question: Which results are given for `O=c1[nH]c(Cc2ccc(F)cc2)nc2c1cnn2C1CCOC1` (racemic) [Example 79]?
Answer: inhibition at 10 µM: 99%; IC50: 1 to 100 nM

Question: For `Cc1cccnc1Cc1nc2c(cnn2C2CCCOC2)c(=O)[nH]1` (racemic) [Example 100], which inhibition at 10 µM is on record?
Answer: The inhibition at 10 µM was 93%.

Question: And the IC50?
Answer: The IC50 was 101 to 1200 nM.

Question: With `CC(C)Cc1nc2c(cnn2C2CCOC2)c(=O)[nH]1` (single isomer, unassigned) [Example 132-3] as the compound, how does the inhibition at 10 µM read?
Answer: The inhibition at 10 µM was 89%.

Question: And the IC50?
Answer: The IC50 was 101 to 1200 nM.

Question: `O=c1[nH]c(CC2CCC2)nc2c1cnn2C1CCOC1` (single isomer, unassigned) [Example 132-9] was tested. Which “% inhibition of PDE9A2 (at 10 micromolar concentration)” value did it give?
Answer: The value was 95%.

Question: And the IC50?
Answer: Its IC50 is 101 to 1200 nM.

Question: How did the inhibition at 10 µM turn out when `COC(=O)N1CCCC(n2ncc3c(=O)[nH]c(Cc4ccccc4OC(F)(F)F)nc32)C1` (racemic) [Example 156] was run?
Answer: Its inhibition at 10 µM is 99%.

Question: And the IC50?
Answer: Its IC50 is 1 to 100 nM.

Question: For `C=Cc1cc(OC)ccc1Cc1nc2c(cnn2C2CCOCC2)c(=O)[nH]1` [Example 230-4], which inhibition at 10 µM is on record?
Answer: Its inhibition at 10 µM is 98%.

Question: And the IC50?
Answer: Its IC50 is 101 to 1200 nM.

Question: Which inhibition at 10 µM does the source give for `CC(C)(C)OC(=O)N1CCCC(n2ncc3c(=O)[nH]c(Cc4ccccc4OC(F)(F)F)nc32)C1` (racemic) [Example 19] here?
Answer: The inhibition at 10 µM was 99%.

Question: What about the IC50 of the same compound?
Answer: The IC50 was 1 to 100 nM.

Question: Which results are given for `O=c1[nH]c(Cc2cc(Cl)cc(Cl)c2)nc2c1cnn2C1CCOCC1` [Example 38]?
Answer: inhibition at 10 µM: 99%; IC50: 1 to 100 nM

Question: What does the source list for `O=c1[nH]c(CC2CC2)nc2c1cnn2C1CCCCO1` (racemic) [Example 147-2]?
Answer: inhibition at 10 µM: 87%; IC50: 101 to 1200 nM

Question: What does the source list for `CC1CC(n2ncc3c(=O)[nH]c(Cc4ccccc4C(F)(F)F)nc32)CCO1` (racemic) [Example 116]?
Answer: % inhibition of PDE9A2 (at 10 micromolar concentration): 93%; IC50: 101 to 1200 nM

Question: With `COc1ccc(Cc2nc3c(cnn3C3CCOCC3)c(=O)[nH]2)cc1` [Example 11] as the compound, how does the inhibition at 10 µM read?
Answer: Its inhibition at 10 µM is 98%.

Question: And the IC50?
Answer: Its IC50 is 1 to 100 nM.

Question: Which results are given for `CN1CCCC(n2ncc3c(=O)[nH]c(CC4CCCC4)nc32)C1` (racemic) [Example 208]?
Answer: inhibition at 10 µM: 100%; IC50: 101 to 1200 nM

Question: Which results are given for `O=c1[nH]c(Cc2cccc(C(F)(F)F)c2)nc2c1cnn2C1CCOC1` (racemic) [Example 85]?
Answer: inhibition at 10 µM: 99%; IC50: 1 to 100 nM

Question: Which results are given for `CC1CC(n2ncc3c(=O)[nH]c(Cc4ccccc4C(F)(F)F)nc32)CCO1` (racemic) [Example 113]?
Answer: inhibition at 10 µM: 92%; IC50: 101 to 1200 nM

Question: `CC(Cc1nc2c(cnn2C2CCOCC2)c(=O)[nH]1)C(F)(F)F` (single isomer, unassigned) [Example 132] was tested. Which “% inhibition of PDE9A2 (at 10 micromolar concentration)” value did it give?
Answer: The value was 90%.

Question: What about the IC50 of the same compound?
Answer: Its IC50 is 101 to 1200 nM.

Question: Which inhibition at 10 µM does the source give for `CC(=O)N1CCCC(n2ncc3c(=O)[nH]c(Cc4ccccn4)nc32)C1` (racemic) [Example 176] here?
Answer: The inhibition at 10 µM was 85%.

Question: And the IC50?
Answer: Its IC50 is 101 to 1200 nM.

Question: `O=c1[nH]c(CCC(F)(F)F)nc2c1cnn2C1CCOCC1` [Example 34] was tested. Which inhibition at 10 µM did it give?
Answer: The inhibition at 10 µM was 93%.

Question: And the IC50?
Answer: The IC50 was 101 to 1200 nM.

Question: Which inhibition at 10 µM does the source give for `CC(C)(C)OC(=O)N1CCCC(n2ncc3c(=O)[nH]c(CC4CCCC4)nc32)C1` (racemic) [Example 17] here?
Answer: Its inhibition at 10 µM is 100%.

Question: What about the IC50 of the same compound?
Answer: The IC50 was 1 to 100 nM.

Question: How did the inhibition at 10 µM turn out when `CC(C)Cc1nc2c(cnn2C2CCCCO2)c(=O)[nH]1` (racemic) [Example 146] was run?
Answer: The inhibition at 10 µM was 91%.

Question: And the IC50?
Answer: Its IC50 is 101 to 1200 nM.

Question: What does the source list for `O=C(c1ccccc1)N1CCCC(n2ncc3c(=O)[nH]c(CC4CCCC4)nc32)C1` (racemic) [Example 183]?
Answer: inhibition at 10 µM: 99%; IC50: 1 to 100 nM

Question: Which inhibition at 10 µM does the source give for `CCC(C)Cc1nc2c(cnn2C2CCOC2)c(=O)[nH]1` (mixture of isomers) [Example 84] here?
Answer: The inhibition at 10 µM was 97%.

Question: What about the IC50 of the same compound?
Answer: The IC50 was 1 to 100 nM.

Question: For `CC(C)(C)OC(=O)N1CCCC(n2ncc3c(=O)[nH]c(Cc4cccc(C(F)(F)F)c4)nc32)C1` (racemic) [Example 22], which inhibition at 10 µM is on record?
Answer: The inhibition at 10 µM was 98%.

Question: What about the IC50 of the same compound?
Answer: The IC50 was 1 to 100 nM.

Question: Which inhibition at 10 µM does the source give for `COC(=O)N1CCCC(n2ncc3c(=O)[nH]c(CC4CCCC4)nc32)C1` (racemic) [Example 154] here?
Answer: The inhibition at 10 µM was 100%.

Question: What about the IC50 of the same compound?
Answer: The IC50 was 1 to 100 nM.

Question: How did the inhibition at 10 µM turn out when `CCC(CC)Cc1nc2c(cnn2C2CCOC2)c(=O)[nH]1` (racemic) [Example 76] was run?
Answer: The inhibition at 10 µM was 98%.

Question: And the IC50?
Answer: The IC50 was 1 to 100 nM.

Question: What does the source list for `O=c1[nH]c(Cc2ccccc2OC(F)(F)F)nc2c1cnn2C1CCOCC1` [Example 138]?
Answer: inhibition at 10 µM: 100%; IC50: 1 to 100 nM

Question: `O=c1[nH]c(Cc2cc(OC(F)(F)F)ccc2F)nc2c1cnn2C1CCOCC1` [Example 50] was tested. Which inhibition at 10 µM did it give?
Answer: Its inhibition at 10 µM is 97%.

Question: And the IC50?
Answer: Its IC50 is 1 to 100 nM.

Question: With `CC(Cc1nc2c(cnn2C2CCOC2)c(=O)[nH]1)C(F)(F)F` (mixture of isomers) [Example 72] as the compound, how does the inhibition at 10 µM read?
Answer: The inhibition at 10 µM was 91%.

Question: What about the IC50 of the same compound?
Answer: The IC50 was 101 to 1200 nM.

Source: patent US8623879B2, “1-heterocyclyl-1,5-dihydro-pyrazolo[3,4-D] pyrimidin-4-one derivates and their use as PDE9A modulators” (Boehringer Ingelheim International GmbH, priority 2008, dated 2014)
